The record followed here is patent US9326956B2, “Methods for improving brain development and cognitive function using beta-hydroxy-beta methylbutyrate” (Abbott Laboratories, priority 2011, dated 2016).

Data set [1] can be described thus: HMB concentration over time in brain interstitial fluid (hippocampus microdialysis) after oral administration. The data set is classed as in vivo, Sprague-Dawley rats. As to the method:
In this Example, the appearance of HMB and its concentration over time in brain interstitial fluid were analyzed after oral administration of HMB.
Initially, Sprague-Dawley rats (Charles River, France) weighing 400-500 g were housed in cages at constant room temperature (22±2° C.) and 45-55% humidity under a regular 12-hour light/dark schedule. Food and water were freely available. Procedures involving animals and their care were conducted in conformity with the institutional guidelines that are in compliance with national laws and EC policies for the Care and Use of Laboratory Animals (RD 2101-2005, 86/609/CEE).
A guide cannula was stereotaxically inserted into the hippocampus area of each anesthetized rat at the coordinates described in a stereotaxic atlas for rats. The rats were allowed to recover from surgery for at least three days. On the first day of the experiment, a brain microdialysis probe (MD-2204, BR-4, 4 mm membrane, available from BASi, West Lafayette, Ind.) was inserted into the guide cannula of each rat. The probe was perfused with Ringer's solution (aCFS Harvard apparatus, #597316) at a constant rate of 2 μl/min. The rat was left in the cage with space for relatively free movement. Samples of dialysate were automatically collected every twenty minutes. A bolus dose of HMB (250 mg/kg body weight) was given by gavage 100 min after starting the experiment and sampling was continued for another 160-220 min.
HMB was measured using UPLC-MS. Specifically, samples of 30-40 μl in aCSF were microfiltered through a 0.2 μm nylon filter, diluted with an equal amount of water, and then injected into the UPLC-TQD (Acuity-TQD system available from Waters Corporation, Milford, Mass.). HMB was analyzed using a BEH Hillic column 1.7 μm; 2.1×150 mm using a gradient consisting of H2O:MeCN 0.1% formic acid. The mass spectrometer was set to Ion Mode ES+.

For the next data set, the system named is Neuro-2A cells. The data set is described as follows: Rate of protein synthesis, incorporation of [3H]-tyrosine into cellular protein pool. The data set is classed as cell-based. The following applies: HMB vs. Control, FIG. 4. As to the method: The effect of HMB on the rate of protein synthesis in Neuro-2A cells was determined by measuring the incorporation of [3H]-tyrosine into cellular protein pool. The phosphorylative status of mTOR and up/down-protein kinases (Akt, ERK 1/2) was determined by western blot. The cell proliferation/viability was determined with the MTT (3-(4,5-dimethylthiazol-2-yl)-2,5-diphenyltetrazolium bromide) colorimetric assay. Data are expressed as mean±SEM. Student t-test was used to analyze the results.

The subject of data set [2] is MEF2 transcription factor. The data set is described as follows: MEF2-dependent transcription luciferase activity (pGL3-4xMEF transfection). It is filed as cell-based. The settings on record: Neuro 2A cells; inhibitor added with HMB; FIGS. 5B-5D. The procedure:
For the transfection experiments in this Example, Neuro-2A cells were used at 80-90% confluence grown in Dulbecco's Modified Eagle's medium (DMEM). Cells were exposed for 5 hours to plasmid pGL3-4×MEF, which contains 4 copies in tandem of the MEF2D binding DNA sequence prior to the sequence of DNA which codes for firefly luciferase. Effectors were added to the medium for 18 h and luciferase activity was determined. For the study of inhibition of signaling factors, inhibitors of the phosphatidyl-inositol 3 kinase (LY294002), ERK 1/2 (PD98059) and mTORC1 activations (rapamycin) were added to the cells.
Data are expressed as mean±SEM. Student t-test was used to analyze the results.

Consider `CC(C)(O)CC(=O)O` [HMB, beta-hydroxy-beta-methylbutyrate], for which the “crossing of the blood brain barrier” value in data set [1] (oral administration, microdialysis model in rats) is “able to cross the blood brain barrier”. The “maximum concentration of HMB measured in brain microdialysates” value in data set [1] (rat 1, 250 mg/kg bolus by gavage) stood at 10.5 ppm. Also, the “time after administration at which HMB appeared in the brain” value in data set [1] (rat 1, 250 mg/kg bolus by gavage, brain microdialysate (fraction 7)) was found to be 40 min. Besides, the “HMB concentration level at end of sampling” value in data set [1] (rat 1, more than 2.5 hours after the gavage) is reported as “had not decreased”. In addition, the “maximum concentration of HMB in brain microdialysates” value in data set [1] (rat 2, 250 mg/kg bolus by gavage) is recorded as “more than 4 ppm”. Also, in data set [1] (rat 2, 250 mg/kg by gavage at fraction 5, 20 min fractions), the “fraction in which HMB was detected for the first time” value is “fraction 7”. Also, the “HMB concentration level at end of experiment” value in data set [1] (rat 2, more than 3.5 h after the gavage) is “had not yet reached basal level”. For the same compound, the “increase on the protein synthesis” value with Neuro-2A cells is recorded as 20%.

Regarding `COc1cccc(-c2cc(=O)c3ccccc3o2)c1N` [PD98059], the “effect of inhibitor on the HMB-mediated increase in MEF2” value in data set [2] was “totally blocked”.
